# From patent US5514706A, “Pharmaceutical compounds” (Eli Lilly and Company, priority 1994, dated 1996)
# Legend:
# Type in all cases: cell-based
# [1] = tested on: plasminogen activator (PA) activity in bovine retinal capillary endothelial cells; experiment: Inhibition of phorbol ester-induced activation of retinal capillary endothelial cells (plasminogen activator (PA) activity in cell lysates); conditions: Bos taurus, activated with 50 nM 4-b PDBu, 48 hours, cell lysate, read-out: PA ED50
# Text: (§1) Retinal capillary endothelial cell cultures were initiated from bovine eyes using a modification of the procedure of Buzney et al., Investigative Ophthalmology and Visual Sciences, 24: 470-483. Bovine eyes were transported on ice from a local abattoir. Extraocular muscle was trimmed from the eye, and the eye bisected posterior to the ora serrata. The vitreous and anterior portion of the eye were discarded, and the neuro-retina was gently dissected from the posterior eyecup. The retinas from 20 cattle were pooled and homogenized (5 strokes of a Teflon/glass homogenizer) in Hank's saline. The homogenate was passed through a 350μ filter to remove large debris and a 210μ filter to remove large vessels. The microvessels were trapped on a 85μ filter. The microvessels were resuspended in Hank's saline and digested with 7.5 mg/ml bacterial collagenase (Boeringher Mannhelm, Indianapolis) in Hank's saline for 1 hour at 37° C. The cells were pelleted by centrifugation (100 xg, 10 min), resuspended in 5 ml Endothelial Growth Media (EGM, Clonetics) and seeded in a gelatin-coated T-25 flask. After 24 hours the cells were trypsinized and replated in a gelatin coated T225. At 7 days and again at 14 days the cultures were labeled with acetylated lipoproteins labeled with the fluorescent probe (1,1'-dioctadecyl-3,3,3,3,-tetramethyl-indocarbocyanine perchlorate). The endothelial cells were separated from contaminating cell types using a fluorescent cell sorter as described in Voyta et al., J. Cell Biology. 99: 2034-2040.
# (§2) Retinal capillary endothelial cells were seeded into 96-well plates and grown to confluence (10^5 cells/well) in EGM containing 10% fetal bovine serum (FBS). The media was changed to Dubecco's Modified Eagle's Medium with 10% fetal bovine serum 24 hours prior to the assay. The cells were treated with 50 nM 4-b phorbol 12,13-dibutyrate (4-b PDBu) to activate PKC and produce the activated endothelial phenotype characteristic of the diabetic state. The activated cells were treated with a series of dilutions of the test compounds. The phorbol esters and the test compounds were dissolved in DMSO before adding to the culture media. The cultures were incubated at 37° C. for 48 hours. Following treatment, the cells were lysed with 25 mM NH4 OH in 0.5% triton X-100.
# (§3) The activation of bovine retinal capillary endothelial cells was monitored through alterations in cellular plasminogen activator (PA) activity in the cell lysates. Plasminogen activator activity was determined in a 50 μl aliquot of cell lysate using the synthetic substrate H-D-valyl-L-leucyl-lysine-p-nitroaniline dihydrochloride (Kabi).
# Cell toxicity was determined in a parallel series of cultures using a neutral red assay. Borenfreund, E. and Puerner, J, J. Tiss. Cult. Meth. 9:7 (1984). […] Table 1 discloses the PA ED50 value in this model for representative compounds. The in vitro endothelial cell model was correlated with in situ and in vivo activities by the following models.
# [2] = tested on: cultured smooth cells derived from rabbit aorta; experiment: 3H-thymidine incorporation (DNA synthesis) in vascular smooth muscle cells stimulated with platelet-derived growth factor; conditions: Oryctolagus cuniculus; 20 ng/ml platelet-derived growth factor, 24 hours
# Experimental: Cells are obtained by explant method as described in Ross, J. Of Cell Bio. 50: 172 (1971). Cells are plated in 96 well microtiter plates for five days. The cultures become confluent and growth arrested. The cells are then transferred to Dulbecco's Modified Eagle's Medium (DMEM) containing 0.5-2% platelet poor plasma, 2 mM L-glutamine, 100 U/ml penicillin, 100 μg ml streptomycin, 1 μ/ml ^3 H-thymidine, 20 ng/ml platelet-derived growth factor and varying concentrations of the compounds. Stock solution of compounds is prepared in dimethyl sulphoxide and then diluted to appropriate concentration (0.01-10 μg/ml) in the above assay medium. Cells are then incubated at 37° C. for 24 hours under 5% CO2 /95% air. At the end of 24 hours, the cells are fixed in methanol. ^3 H thymidine incorporation in DNA was then determined by scintillation counting as described in Bonin et al., Exp. Cell Res. 181:475-482 (1989).
# Table 1 discloses the IC50 value of representative compounds tested in the ^3 H-thymidine incorporation model. Thus the invention specifically provides a method of treating restenosis, which comprises administering to a patient in need of treatment an effective amount of a compound of the formula (I).
# [3] = tested on: plasminogen activator (PA) activity in bovine retinal capillary endothelial cells; experiment: Activation of retinal capillary endothelial cells by phorbol esters (PA activity); conditions: for IC50: Bos taurus, Endothelial cell, dose-response curves of PA activity, read-out: IC50 from dose-response curves for phorbol ester (activation of PA activity)
# Text: as §1, §2, §3
# There was also a two fold increase in cell number. […] Dose-response curves generated for 4-b PDBu and 4-b PMA indicated IC50 of 50 nH and 5 nH respectively. Elevated PA activity was observed only after prolonged (at least 8 hours) stimulation with phorbol esters. The PA activity continued to increase in a time and dose dependent manner for up to 72 hours, but constant stimulation with phorbol ester was required to maintain endothelial cell activation.
# [4] = tested on: bovine retinal capillary endothelial cells; experiment: Retinal capillary endothelial cell number after phorbol ester treatment; conditions: confluent cells, 48 hours
# Text: as §1, with “The endothelial cells were separated from contaminating cell types using a fluorescent cell sorter as described in Voyta et al., J. Cell Biology. 99: 2034-2040.” left out
SMILES,IC50 [1],IC50 [2],other results
CCCC(=O)O[C@@H]1[C@@H](C)[C@@]2(O)[C@@H](C=C(CO)C[C@@]3(O)C(=O)C(C)=C[C@@H]23)[C@@H]2C(C)(C)[C@]12OC(=O)CCC [4-a PDBu],–,–,increase in activation occurred only after treatment with phorbol esters known to activate PKC (yes/no) [3]: not
"N#CC1=C(N)Oc2ccc3ccccc3c2C1c1cccc(F)c1 (stereo not drawn) [Example 7, 2-Amino-4-(3-fluorophenyl)-4H-naphtho 2,1-b!pyran-3-carbonitrile]",–,2000 nM,–
"N#CC1=C(N)Oc2ccc3ccccc3c2C1c1cccc([N+](=O)[O-])c1 (stereo not drawn) [Example 2, 2-Amino-4-(3-nitrophenyl) -4H-naphtho 2,1-b!pyran-3-carbonitrile]",700 nM,2500 nM,–
"CCCC(=O)O[C@@H]1[C@@H](C)[C@@]2(O)[C@@H](C=C(CO)C[C@]3(O)C(=O)C(C)=C[C@@H]23)[C@@H]2C(C)(C)[C@]12OC(=O)CCC [4-b PDBu, 4-b phorbol 12,13-dibutyrate]",–,–,"increase in activation occurred only after treatment with phorbol esters known to activate PKC (yes/no) [3]: increase in activation occurred; IC50 [3]: 50 nM; increase in PA activity associated with the cell layer ([3]; confluent cells, 48 hours): 12 fold; increase in PA released into the media ([3]; confluent cells, 48 hours): 12 fold; increase in cell number [4]: two"
"N#CC1=C(N)Oc2ccc3ccccc3c2C1c1cccc(Cl)c1 (stereo not drawn) [Example 6, 2-Amino-4-(3-chlorophenyl)-4H-naphtho 2,1-b!pyran-3-carbonitrile]",1000 nM,2000 nM,–
"N#CC1=C(N)Oc2ccc3ccccc3c2C1c1ccc([N+](=O)[O-])cc1 (stereo not drawn) [Example 3, 2-Amino-4-(4-nitrophenyl)-4H-naphtho 2,1-b!pyran-3-carbonitrile]",> 20000 nM,8000 nM,–
"N#CC1=C(N)Oc2ccc3ccccc3c2C1c1ccc(F)cc1 (stereo not drawn) [Example 8, 2-Amino-4-(4-fluorophenyl)-4H-naphtho 2,1-b!pyran-3-carbonitrile]",9000 nM,1500 nM,–
"N#CC1=C(N)Oc2ccc3ccccc3c2C1c1ccccc1[N+](=O)[O-] (stereo not drawn) [Example 4, 2-Amino-4-(2-nitrophenyl)-4H-naphtho 2,1-b!pyran-3-carbonitrile]",> 20000 nM,> 30000 nM,–
"N#CC1=C(N)Oc2ccc3ccccc3c2C1c1cccc(Br)c1 (stereo not drawn) [Example 5, 2-Amino-4-(3-bromophenyl)-4H-naphtho 2,1-b!pyran-3-carbonitrile]",700 nM,1800 nM,–
CCCCCCCCCCCCCC(=O)O[C@@H]1[C@@H](C)[C@@]2(O)[C@@H](C=C(CO)C[C@]3(O)C(=O)C(C)=C[C@@H]23)[C@@H]2C(C)(C)[C@]12OC(C)=O [4-b PMA],–,–,increase in activation occurred only after treatment with phorbol esters known to activate PKC (yes/no) [3]: increase in activation occurred; IC50 [3]: 5 nM

# Continued, in another order:
IC50 [1],SMILES,IC50 [2],other results
> 20000 nM,"N#CC1=C(N)Oc2ccc3ccccc3c2C1c1ccccc1F (stereo not drawn) [Example 9, 2-Amino-4-(2-fluorophenyl) -4H-naphtho 2,1-b!pyran-3-carbonitrile]",> 3000 nM,–
8000 nM,"CCOC=NC1=C(C#N)C(c2cccc([N+](=O)[O-])c2)c2c(ccc3cc(C(=O)OCC)ccc23)O1 (stereo not drawn) [Example 17, Ethyl 3-cyano-2-ethoxymethyleneamino-4-(3-nitrophenyl)-4H-naphtho 2,1-b!pyran-7-carboxylate]",6000 nM,–
650 nM,"N#CC1=C(N)Oc2c(O)cc3ccccc3c2C1c1cccc([N+](=O)[O-])c1 (stereo not drawn) [Example 12, 2-Amino-10-hydroxy-4-(3-nitrophenyl)-4H-naphtho 2,1-b!pyran-3-carbonitrile]",3000 nM,–
> 100000 nM,"COc1cccc(C2C(C#N)=C(N)Oc3ccc4cc(C(=O)O)ccc4c32)c1 (stereo not drawn) [Example 14, 2-Amino-3-cyano-4-(3-methoxyphenyl)-4H-naphtho 2,1-b!pyran-7-carboxylic acid]",–,–
5000 nM,"N#CC1=C(N)Oc2ccc3cc(C(=O)O)ccc3c2C1c1cccc(C(=O)O)c1 (stereo not drawn) [Example 15, 2-Amino-3-cyano-4-(3-carboxyphenyl)-4H-naphtho 2,1-b!pyran-7-carboxylic acid]",–,–
50 nM,"N#CC1=C(N)Oc2ccc3ccccc3c2C1c1cccc(C(F)(F)F)c1 (stereo not drawn) [Example 10, 2-Amino-4-3-(trifluoromethyl)phenyl!-4H-naphtho 2,1-b!pyran-3-carbonitrile]",500 nM,–
> 20000 nM,"N#CC1=C(N)Oc2ccc3cc(C(=O)O)ccc3c2C1c1cccc([N+](=O)[O-])c1 (stereo not drawn) [Example 11, 2-Amino-3-cyano-4-(3-nitrophenyl)-4H-naphtho 2,1-b!pyran-7-carboxylic acid]",> 30000 nM,–
> 100000 nM,"N#CC1=C(N)Oc2ccc3cc(C(=O)O)ccc3c2C1c1cccc(OC(F)(F)F)c1 (stereo not drawn) [Example 16, 2-Amino-3-cyano-4-3-(trifluoromethoxy)phenyl!-4H-naphtho 2,1-b!pyran-7-carboxylic acid]",–,–
> 20000 nM,"COc1ccc2ccc3c(c2c1)C(c1cccc([N+](=O)[O-])c1)C(C#N)=C(N)O3 (stereo not drawn) [Example 13, 2-Amino-6-methoxy-4-(3-nitrophenyl)-4H-naphtho 2,1-b!pyran-3-carbonitrile]",> 3000 nM,–
